Test results as given in the supplement of paper PMC13380429.
± gives the standard deviation of the averaged measurements.

Assays:
Details in all cases: 72 h
U2OS [1] = test: relative viability EC50 (midpoint between 100% and the lowest measured viability); higher = less toxic
Vero E6 [2] = test: as above
Caco-2 [3] = test: as above
HepG2 [4] = test: as above
Calu-3 [5] = test: as above
U2OS [6] = test: drug sensitivity score (DSS) for viability; higher = more toxic; extreme values may be limits of the assay
Vero E6 [7] = test: as above
Caco-2 [8] = test: as above
HepG2 [9] = test: as above
Calu-3 [10] = test: as above
U2OS [11] = test: cell viability relative to DMSO; higher = less toxic
Vero E6 [12] = test: as above
Caco-2 [13] = test: as above
HepG2 [14] = test: as above
Calu-3 [15] = test: as above

Row | Compound | relative viability EC50 (U2OS [1]) | relative viability EC50 (Vero E6 [2]) | relative viability EC50 (Caco-2 [3]) | relative viability EC50 (HepG2 [4]) | relative viability EC50 (Calu-3 [5]) | drug sensitivity score (U2OS [6]) | drug sensitivity score (Vero E6 [7]) | drug sensitivity score (Caco-2 [8]) | drug sensitivity score (HepG2 [9]) | drug sensitivity score (Calu-3 [10]) | cell viability (U2OS [11]; 1 nM) | cell viability (U2OS [11]; 10 nM) | cell viability (U2OS [11]; 100 nM) | cell viability (U2OS [11]; 1000 nM) | cell viability (U2OS [11]; 10000 nM) | cell viability (Vero E6 [12]; 1 nM) | cell viability (Vero E6 [12]; 10 nM) | cell viability (Vero E6 [12]; 100 nM) | cell viability (Vero E6 [12]; 1000 nM) | cell viability (Vero E6 [12]; 10000 nM) | cell viability (Caco-2 [13]; 1 nM) | cell viability (Caco-2 [13]; 10 nM) | cell viability (Caco-2 [13]; 100 nM) | cell viability (Caco-2 [13]; 1000 nM) | cell viability (Caco-2 [13]; 10000 nM) | cell viability (HepG2 [14]; 1 nM) | cell viability (HepG2 [14]; 10 nM) | cell viability (HepG2 [14]; 100 nM) | cell viability (HepG2 [14]; 1000 nM) | cell viability (HepG2 [14]; 10000 nM) | cell viability (Calu-3 [15]; 1 nM) | cell viability (Calu-3 [15]; 10 nM) | cell viability (Calu-3 [15]; 100 nM) | cell viability (Calu-3 [15]; 1000 nM) | cell viability (Calu-3 [15]; 10000 nM)
1 | c1ccc(CNc2ncnc3[nH]cnc23)cc1 [6-benzylaminopurine] | > 10 µM | > 10 µM | > 10 µM | > 10 µM | > 10 µM | 0 | 0 | 0 | 0 | 0 | 106% | 97.9% | 103% | 99.5% | 100% | 97.1% | 104% | 95.6% | 95% | 104% | 97% | 107% | 90.8% | 109% | 112% | 98.3% | 106% | 98.9% | 109% | 98.4% | 99.9% | 98.4% | 120% | 97.3% | 112%
2 | CCCCOc1c(C(=O)c2c(F)cc(C)cc2F)c[nH]c2nncc1-2 | > 10 µM | > 10 µM | > 10 µM | > 10 µM | > 10 µM | 0 | 1.6 | 2.7 | 2.9 | 0 | 98% | 101% | 102% | 113% | 95.6% | 102% | 97.4% | 94.1% | 84.5% | 84.9% | 104% | 102% | 94% | 82.9% | 77.7% | 96.7% | 99.8% | 95.1% | 81.4% | 80.8% | 94.9% | 86.1% | 71.1% | 60.7% | 89.4%
3 | CCOC(=O)[C@H]1O[C@@H]1C(=O)N[C@@H](CC(C)C)C(=O)NCCC(C)C [aloxistatin] | > 10 µM | > 10 µM | > 10 µM | > 10 µM | > 10 µM | 0 | 0 | 0 | 0.2 | 0 | 99.6% | 102% | 94.7% | 102% | 97.6% | 106% | 109% | 108% | 102% | 99.2% | 97.6% | 98.8% | 90.5% | 102% | 98% | 118% | 102% | 96.1% | 90.7% | 88.8% | 91.7% | 99.3% | 107% | 101% | 99.5%
4 | CCn1c(=O)[nH]c2cc(Cl)c(Cl)cc21 [DCEBIO] | > 10 µM | > 10 µM | > 10 µM | > 10 µM | > 10 µM | 0 | 0 | 0 | 0 | 0 | 98% | 103% | 98.3% | 98.3% | 97% | 102% | 100% | 96% | 99.9% | 99.2% | 98.2% | 97.2% | 99.7% | 93% | 98.7% | 101% | 104% | 104% | 86.3% | 107% | 101% | 98.6% | 93.8% | 96.9% | 102%
5 | CC(C)(N)c1nc(-c2ccc(OC(F)(F)F)cc2)c[nH]1 | > 10 µM | > 10 µM | > 10 µM | > 10 µM | > 10 µM | 0 | 0 | 0.1 | 0 | 0 | 98.2% | 94.1% | 96.5% | 95.6% | 95.4% | 95.9% | 97.7% | 94.6% | 94.9% | 107% | 95.8% | 96.5% | 91.3% | 92% | 88% | 96% | 107% | 101% | 117% | 104% | 107% | 102% | 90.1% | 105% | 113%
6 | NC(=O)c1cccc(-c2cccc(OC(=O)NC3CCCCC3)c2)c1 [URB597] | > 10 µM | > 10 µM | > 10 µM | > 10 µM | > 10 µM | 0 | 0 | 0 | 0 | 0 | 94% | 102% | 98.5% | 105% | 98.8% | 107% | 98.5% | 104% | 96.7% | 103% | 93.9% | 98.7% | 93.9% | 103% | 89.1% | 104% | 105% | 104% | 96.9% | 92.3% | 86.4% | 94.6% | 92.7% | 88.4% | 99.1%
7 | CC(=O)OCC(=O)[C@@]12OC(C)(C)O[C@@H]1C[C@H]1[C@@H]3C[C@H](F)C4=CC(=O)C=C[C@]4(C)[C@@]3(F)[C@@H](O)C[C@@]12C [fluocinonide] | > 10 µM | > 10 µM | > 10 µM | > 10 µM | > 10 µM | 0 | 0 | 0 | 0 | 0 | 98.5 ± 1.5% | 96 ± 3.3% | 95.2 ± 1.4% | 96.7 ± 4.4% | 98.7 ± 4.3% | 101 ± 7.7% | 93.6 ± 0.57% | 97.9 ± 13% | 96.7 ± 5.4% | 98.5 ± 2.8% | 91.5% | 95.6% | 93.8% | 104% | 99.2% | 100 ± 2.5% | 95.5 ± 6% | 101 ± 8.3% | 104 ± 1.2% | 100 ± 6.2% | 102 ± 7.5% | 97.2 ± 6% | 87.8 ± 1.1% | 98.2 ± 3.8% | 101 ± 3.7%
8 | COc1cc(C=O)ccc1O [vanillin] | > 10 µM | > 10 µM | > 10 µM | > 10 µM | > 10 µM | 0 | 0 | 0 | 0 | 0 | 96.1% | 104% | 95.1% | 104% | 99.1% | 92% | 91.5% | 89.7% | 89% | 105% | 92.8% | 90% | 96% | 104% | 96.6% | 99.9% | 91.9% | 102% | 115% | 97.4% | 97.5% | 107% | 109% | 99.8% | 105%
9 | CC(=O)O[C@@H]1CC[C@@]2(C)[C@@H](CC[C@]3(C)[C@@H]2C(=O)C=C2[C@@H]4[C@@H](C)[C@H](C)CC[C@]4(C)CC[C@]23C)[C@@]1(C)C(=O)O [acetyl-11-keto-beta-boswellic-acid] | > 10 µM | > 10 µM | > 10 µM | > 10 µM | > 10 µM | 0 | 0 | 0 | 0 | 0 | 101 ± 2.5% | 98.5 ± 2.3% | 98.7 ± 3.1% | 102 ± 4.6% | 99.5 ± 1.1% | 104 ± 7.3% | 94.4 ± 5% | 99.7 ± 8% | 102 ± 3.4% | 104 ± 3.3% | 94 ± 1.4% | 109 ± 2.7% | 87.8 ± 15% | 98.1 ± 18% | 96.5 ± 4.7% | 109 ± 7.6% | 94 ± 7.4% | 106.6 ± 0.85% | 103 ± 5.4% | 101 ± 8% | 93.5 ± 0.71% | 108 ± 3.8% | 102 ± 7.1% | 101 ± 22% | 96.5 ± 3.5%
10 | COc1cc2c(cc1OC)-c1cc3ccc(OC)c(OC)c3c[n+]1CC2 [palmatine-chloride] | > 10 µM | > 10 µM | > 10 µM | > 10 µM | > 10 µM | 0 | 0 | 0 | 0.6 | 0 | 101% | 101% | 98.5% | 102% | 92.6% | 100% | 99.3% | 99.6% | 102% | 101% | 103% | 99.1% | 92.8% | 102% | 90.9% | 110% | 101% | 107% | 105% | 77.1% | 94.1% | 105% | 100% | 90.1% | 90%
11 | CC(C)Cn1cnc2c(N)nc3ccccc3c21 [imiquimod] | > 10 µM | > 10 µM | > 10 µM | > 10 µM | > 10 µM | 0 | 0 | 0 | 0 | 0 | 92.7% | 101% | 94.3% | 100% | 105% | 93.1% | 93.2% | 99% | 88.9% | 100% | 96.4% | 92.9% | 105% | 97.7% | 100% | 93.6% | 95.5% | 100% | 109% | 112% | 103% | 96% | 102% | 94.5% | 103%
12 | c1ccc2c(c1)CCC[C@H]2Nc1nc2ccccc2[nH]1 [NS-8593] | > 10 µM | > 10 µM | > 10 µM | > 10 µM | > 10 µM | 0 | 0 | 0 | 0.8 | 0 | 104% | 98.1% | 96.2% | 100% | 90.1% | 94% | 95.1% | 95.6% | 98.4% | 87.4% | 93.1% | 92.9% | 92.4% | 97.2% | 92.2% | 96.8% | 96.8% | 106% | 99.2% | 78.5% | 96.2% | 96.2% | 94% | 94.3% | 90.1%
13 | Cc1nc(Nc2ncc(C(=O)Nc3c(C)cccc3Cl)s2)cc(N2CCN(CCO)CC2)n1 [dasatinib] | 0.33 µM | 0.218 µM | 0.201 µM | 1.62 µM | 0.0245 µM | 10.3 | 15.9 | 12.9 | 6.2 | 24.7 | 100% | 93.9% | 85% | 53.9% | 36.8% | 99% | 93.1% | 76.1% | 29.6% | 16.9% | 101% | 97.6% | 77% | 45.5% | 33.2% | 102% | 99% | 87.1% | 80.6% | 30.1% | 95.1% | 72% | 36.6% | 30.2% | 18.1%
14 | O=C(c1ccc(Cl)o1)N1CC2CNCC2C1 (stereo not given) [AZD1446] | > 10 µM | > 10 µM | > 10 µM | > 10 µM | > 10 µM | 0 | 0 | 0 | 0 | 0 | 99.6% | 98.6% | 96.1% | 97.7% | 97.8% | 96.4% | 98.2% | 98.7% | 99.6% | 91.3% | 103% | 97.8% | 97% | 103% | 103% | 99.3% | 93.1% | 90.2% | 99.1% | 88% | 112% | 89.8% | 94.4% | 89.4% | 107%
